Legend:
C57BL/6 mice [1] = assay: Steroid-resistant AAD models (A. niger ± LPS), fluticasone propionate; format: in vivo; settings: A. niger conidia ±30 ng LPS; daily treatment
Procedure: As shown in the severe eosinophilic and neutrophilic steroid-resistant AAD models of FIGS. 14A-14B, mice challenged with Aspergillus niger (AN) develop an asthma phenotype, here showing airway hyperresponsiveness (AHR), that is steroid (fluticasone propionate; FP, a commonly used steroid in asthma) resistant. Illustrated in FIG. 14A is an experimental timeline for assessing the effect of daily FP or vehicle (liposome: dilauroylphosphatidylcholine: DLPC) treatment on AHR. AHR was measured as a function of respiratory system resistance (RRS(cmH2O·s·ml^−1)) in C57BL/6 mice challenged intranasally (q.o.d.) with 4×10^5 A. niger (AN) conidia ±30 ng lipopolysaccharide (LPS) (FIG. 14B).

Dkk-1 [2] = molecular target: T1, Dkk-1 (Mus musculus, UniProt O54908); assay: C. albicans-induced allergic airway disease in mice given Dkk-1 inhibitor intraperitoneally; format: in vivo, C57BL/6 mice
T1 construct: endogenous in cells; host or cells: C57BL/6 mice (whole animal; Dkk-1 released from platelets into plasma)
T1 sequence (O54908 32-272): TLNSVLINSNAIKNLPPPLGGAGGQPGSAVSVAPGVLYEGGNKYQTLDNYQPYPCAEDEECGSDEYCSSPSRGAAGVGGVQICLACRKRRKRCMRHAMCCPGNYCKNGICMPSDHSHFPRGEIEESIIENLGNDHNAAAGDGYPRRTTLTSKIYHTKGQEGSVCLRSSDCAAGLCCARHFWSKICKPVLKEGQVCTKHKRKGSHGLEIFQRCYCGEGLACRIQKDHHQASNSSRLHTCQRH
Procedure: The relevance of Dkk-1 to allergic airway disease induced by airway mycosis is unknown. Mice challenged with C. albicans were administered a Dkk-1 inhibitor (WAY 262611) previously shown to block this peptide in vivo (Chae et al., 2016b) (FIG. 2G).
(§1) C57BL/6 mice were administered 1×10^5 viable cells of C. albicans intranasally every other day for 8 challenges as shown in FIG. 1 (Porter et al., 2011a). Alternatively, C57BL/6 mice were given 4, 8, and 16 μmol candidalysin or 16 μmol of scrambled peptide control in PBS every other day for 8 challenges as shown in FIG. 8. Dkk-1 inhibitor (Chae et al., 2016a) (WAY262611, cat: 317700, Millipore Sigma, Burlington, MA. Dose: 10 or 20 μg/kg) and recombinant mouse Dkk-1 (5897-DK-010, R&D systems, Minneapolis, MN. Dose: 5 μg/kg) were given intraperitoneally at the same time and fungal challenge. Mice were analyzed 24 h after the final challenge for allergic airway disease endpoints.
(§2) Bronchial constriction in response to increasing dose of acetylcholine (Ach) injected intravenously, bronchoalveolar lavage fluid (BALF) cell differential counting, Dkk-1 quantitation from plasma, ELISA analysis of whole lung, flow cytometry analysis of Th cells and lung histopathology were assessed in response to C. albicans challenge as previously described (Porter et al., 2011a). Briefly, mice were anesthetized with etomidate and intravenously injected with acetylcholine via tail vein to assess AHR as quantified by measuring respiratory system resistance (RRS). Total BALF cells were collected by lavaging whole lung, total cells were enumerated and differential cell counting was performed on modified Giemsa-stained cytospin preparations. Plasma was harvested by retro-orbital bleeding and anti-coagulated by 10% 0.5M EDTA (Thermofisher scientific, Waltham MA). Lungs were harvested and processed as follows. Lungs were cut into small pieces and incubated in digestion buffer (2 mg/ml collagenase (#LS004177, Worthington), 0.04 mg/ml DNAse (#10104159001, Sigma) 1, 20% FBS in HBSS) for 1 h at 37° C. after which they were deaggregated by pressing through a […] nylon mesh and centrifuged at 400×g for 5 minutes at 4° C. Supernatants were discarded, and 1.5 mL of ACK (Thermofisher scientific, Waltham MA) was added and incubated for 3 min at room temperature for erythrocyte lysis. ACK was then neutralized with 7.5 mL of complete RPMI-1640 (Corning, NY), with 10% FBS and 1% Pen Strep, Gibco, Waltham MA). The resulting leukocyte preparations were centrifuged and prepared for flow cytometry analysis or ELISA.
Cell culture supernatants were analyzed for cytokines by standard ELISA after comparison to recombinant standard. IL-4 (Clone 11B11 and 554390 BD Biosciences, San Jose, CA), IL-5, IL-13 (DY405, DY413, R&D systems, Minneapolis, MN), IL-17 (BMS2017, Thermofisher scientific, Waltham MA), IFN-7 (555142, BD Biosciences, San Jose, CA), IL-1, IL-6, TNF (ab210895, ab213749 and ab212073, Abcam, Cambridge MA) were used as antibodies pairs and capture signals were amplified using Streptavidin-horseradish peroxidase conjugate (51-9002813, BD Biosciences, San Jose, CA). The plate was further developed using TMB substrate solution (N301, Thermofisher scientific, Waltham MA) and detected at the absorbance wavelength of 450 nm.
Total lung cells isolated above were stained with Live/Dead Fix Blue (L34961, Thermofisher scientific, Waltham MA), CD45, CD3, CD4 (103122, 100222, 100412, Biolegend, San Diego, CA). Cells were separated into 3 groups, then permeabilized and fixed using Transcription Factor Buffer Set (562574, BD Biosciences, San Jose, CA), and stained individually for T-bet, GATA3 or RORγt (561265, 560074, 562607, BD Biosciences, San Jose, CA). For megakaryocyte staining, total lung cells were stained with Live/Dead Fix Blue and CD41, CXCR4 (133927, 146507, Biolegend, San Diego, CA), Dkk-1 (BAM1765, R&D systems, Minneapolis, MN) and PE-streptavidin (405203, Biolegend, San Diego, CA). […]

Dkk-1 [3] = molecular target: T1, Dkk-1; assay: Fungal experimental asthma due to Aspergillus niger, Dkk-1 antagonist IN or IP; format: in vivo, C57BL/6 mice
Procedure: C57BL/6 mice (4-6 weeks old) were challenged every second day with 400,000 viable conidia of AN while at the same time receiving a Dkk-1 antagonist (WAY262611) intranasally (IN) or intraperitoneally (IP) for 14 days. Airway hyperresponsiveness as assessed by enhanced increases in respiratory system resistance in response to increasing doses of acetylcholine chloride injected intravenously were determined as compared to PBS control mice (blue line). […] Thus, regardless of the fungus used, either Candida albicans or A. niger as shown herein, Dkk-1 can induce AHR. Statistics: IP versus IN or AN lines: P<0.05.

Human platelets = assay: Dkk-1 release from human platelets stimulated overnight at 4° C. or 37° C.; format: cell-based; settings: overnight at both 4° C. and 37° C.; versus unstimulated platelets
Procedure: To investigate agents driving Dkk-1 release by platelets, human platelets were stimulated with lipopolysaccharide (LPS), thrombin, prothrombin (ProThrom), proteinase of Aspergillus melleus (PAM), or candidalysin (C. Lysin) overnight at 4° C. (FIG. 13A) or 37° C. (FIG. 13B). Unstimulated human platelets served as a control (platelets). Following stimulation, Dkk-1 concentration in the supernatant was quantified.

C57BL/6 mice [4] = assay: Recombinant mouse Dkk-1 i.p. in ece1Δ/Δ C. albicans-challenged mice; format: in vivo
Procedure: To confirm, synthetic mouse Dkk-1 was administered to mice challenged with ece1Δ/Δ C. albicans (FIG. 3A). […] Dkk-1 alone had no effect on any index of allergic airway disease when administered through the intraperitoneal route (data not shown). Thus, in some aspects, Dkk-1 may be an important mediator of lung Th2 cell responses (Chae et al., 2016b), and may be equally important for the generation of Th17 cell responses in the context of airway mycosis. These findings further confirm that Dkk-1 is essential for the control of C. albicans growth in the lung.
as §1, §2

[5] = ece1Δ/Δ C. albicans-challenged mice

For `CCC(=O)O[C@]1(C(=O)SCF)[C@H](C)C[C@H]2[C@@H]3C[C@H](F)C4=CC(=O)C=C[C@]4(C)[C@@]3(F)[C@@H](O)C[C@@]21C` [FP, fluticasone propionate], the airway hyperresponsiveness (C57BL/6 mice [1]) was “exacerbate”.

With `NCC1CCN(c2nccc(-c3ccc4ccccc4c3)n2)CC1` [WAY 262611] the lung fungal burdens (Dkk-1 [2]; C. albicans-challenged mice) was “markedly elevated”, the BALF eosinophilia (Dkk-1 [2]; C. albicans-challenged mice, 10 or 20 μg/kg i.p.) was “most notably reducing” and the “BALF inflammatory cell recruitment” value (Dkk-1 [2]; C. albicans-challenged mice, 10 or 20 μg/kg i.p., dose-dependent) was “progressively reduced”. For the same molecule, the “secretion of type 2 cytokines (IL-4, IL-5, IL-13) from whole lung” value (Dkk-1 [2]; C. albicans-challenged mice, ELISA) was “suppression”, the airway hyper-responsiveness (Dkk-1 [2]; C. albicans-challenged mice, inhibitor 10 or 20 μg/kg i.p., dose-dependent, 24 h after final challenge) was “progressively reduced” and the “secretion of IL-1β, IL-6 and TNF” value (Dkk-1 [2]; C. albicans-challenged mice, lung, ELISA) was “not significantly affected”. For the same molecule, the “secretion of IL-17” value (Dkk-1 [2]; C. albicans-challenged mice, whole lung, ELISA) was “inhibited”, the “recruitment to whole lung of GATA3+ Th2 and RORγt+ Th17 cells” value (Dkk-1 [2]; flow cytometry, correlated with inhibitor dose) was “decreased recruitment” and the “airway hyperresponsiveness (AHR) in fungal experimental asthma due to Aspergillus niger” value (Dkk-1 [3]; FIG. 16 legend, route not stated) was “abrogates”. For the same molecule, the “AHR induced by AN” value (Dkk-1 [3]; IP route (systemic), 14 days, P<0.05 versus IN or AN) was “abrogates”.

With thrombin the “Dkk-1 release by platelets” value (Human platelets) was “significantly increased”.

B1: Dkk-1: recombinant mouse Dkk-1 (5897-DK-010, R&D systems), Wnt pathway antagonist peptide (protein, UniProt O54908 32-272, looked up)
Dickkopf-related protein 1: T1 sequence (O54908 32-272)
In the case of B1, the “any index of allergic airway disease” value (C57BL/6 mice [4]; Dkk-1 alone, intraperitoneal route, data not shown) is reported as “no effect”, the fungal lung burdens (C57BL/6 mice [4]; [5]) is reported as “significantly reduced” and the “recruitment of inflammatory cells, especially eosinophils, to the airways” value (C57BL/6 mice [4]; [5]) is reported as “markedly enhanced”. For the same molecule, the “recruitment to lung of GATA3+ Th2 and RORγt+ Th17 cells” value (C57BL/6 mice [4]; [5]) was “markedly increase”, the “secretion of innate pro-inflammatory cytokines” value (C57BL/6 mice [4]; [5]) was “did not influence” and the “secretion of lung Th2 cytokines, especially IL-4, but also IL-17” value (C57BL/6 mice [4]; [5]) was “markedly enhanced”. For the same molecule, the airway hyper-responsiveness (C57BL/6 mice [4]; ece1Δ/Δ C. albicans-challenged mice, 5 μg/kg i.p.) was “significantly enhanced”.
